Measured values taken from patent publication US20180221457A1 (VAL-CHUM, LIMITED PARTNERSHIP, priority 2015, published 2018).
Blank lines part the entries; values can stand above or below the molecule they belong to.

Experiments:
[1] = target: T1, human G3PP (hG3PP) (Homo sapiens, UniProt A6NDG6); test: Effect of organic acids on G3PP activity in hG3PP-overexpressing 293T cell extracts; type: biochemical; conditions: 10 mM Gro3P substrate, 2 or 10 mM test organic acid, 30 min at 30° C.
T1 construct: expressed in transfected cells; host or cells: 293T cells (whole cell extract)
T1 sequence (A6NDG6 1-321): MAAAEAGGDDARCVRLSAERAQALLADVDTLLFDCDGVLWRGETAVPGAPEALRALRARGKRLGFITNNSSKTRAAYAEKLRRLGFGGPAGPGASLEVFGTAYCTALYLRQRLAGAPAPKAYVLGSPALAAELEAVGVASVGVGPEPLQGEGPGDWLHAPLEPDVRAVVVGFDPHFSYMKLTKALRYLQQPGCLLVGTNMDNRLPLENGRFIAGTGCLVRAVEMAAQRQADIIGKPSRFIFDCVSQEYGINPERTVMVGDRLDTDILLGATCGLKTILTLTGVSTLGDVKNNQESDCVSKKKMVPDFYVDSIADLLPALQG
Experimental: In order to examine the effect of various compounds on G3PP activity, human G3PP (hG3PP) was overexpressed in 293T cells, using a plasmid vector. Simultaneously control cells received GFP (Green Fluorescent Protein) expression plasmid. After 72 h following transfection, cells were harvested and whole cell extracts were prepared in Krebs Ringer Buffer (KRBH). G3PP was assayed using […] G3PP cell extract protein (or GFP control extract) with 10 mM Gro3P substrate and 2 or 10 mM test organic acid (R-hydroxy butyric acid, glycolate, succinate, citrate, malate, fumarate, lactate and malonate). Incubations were for 30 min at 30° C. Then the reactions were stopped by adding perchloric acid and glycerol released was measured using Γ-^32P-labeled ATP plus glycerokinase. The amount of glycerol release is proportional to the activity of hG3PP in the cell extracts.

[2] = system: INS832/13 β-cells; test: Free fatty acids and glycerol release from INS832/13 cells; type: cell-based, rat; conditions: 50 μM orlistat, 2 h
Experimental: (§1) Free fatty acids and glycerol release. For FFA determinations, isolated rat islets were pre-incubated for 1 h in KRBH containing 2 mM glutamine and at 4 mM glucose, 50 μM carnitine and then incubated for 2 h at 4, 10, 16 and 25 mM glucose. The low and high glucose concentrations were 2 and 10 mM, respectively, when INS832/13 cells were used. Incubations were done without and with the panlipase inhibitor, orlistat. Cells and islets were harvested after incubations for protein extraction. FFA released into the medium were extracted by a modified Dole-Meinertz extraction procedure (Puttmann et al., 1993). Briefly, the media (0.5 ml), in Pyrex glass tubes, were mixed with the internal standard [^2H31]-palmitic acid and extracted with 2.5 ml of a solvent mixture containing isopropanol-n-heptane-2M phosphoric acid (40:10:1, v/v). […] The dried fatty acids were derivatized with phenacylbromide and quantified by reverse phase HPLC (Mehta et al., 1998) using a Zorbax Eclipse plus XDB analytical C18 column (4.6×250 mm; 5 μm; Agilent Technology). FFA were eluted using methanol/water (92.5:7.5, v/v) at a flow rate of 1.5 ml/min and absorbance of eluting FFA-phenacyl derivatives was measured at 242 and 254 nm. […] Glycerol release was determined by a radiometric glycerol assay (Bradley and Kaslow, 1989) using [Γ-^32P]ATP and glycerokinase.

[3] = system: rat islets; test: Free fatty acids and glycerol release from isolated rat islets; type: cell-based; conditions: 50 μM orlistat, 2 h
Experimental: Islet and hepatocyte isolation. Pancreatic islets were isolated from rats and mice (Peyot et al., 2009). Isolated islets were cultured overnight at 37° C. in complete RPMI 1640 medium. Hepatocytes were isolated from rats by in situ collagenase perfusion and were seeded in DMEM complete medium (Merlen et al., 2014).
as §1, with “v/v). After thorough mixing by vortex, the tubes were kept in a bath sonicator (Branson Ultrasonic) and sonicated for 2 min with 30 s intervals, avoiding sample heating. After rigorous mixing by vortex, the tubes were let stand at room temperature for 10 min, and then heptane (1 ml) and water (1.5 ml) were added and the tubes were thoroughly mixed by vortex followed by sonication for 1 min. Then the tubes were centrifuged at 1000×g for 10 min at 4° C.” for “v/v).”, “glycerokinase. […]” for “glycerokinase.”

[4] = substrate: O=P(O)(O)OCC(O)CO; test: purified protein, by the assay type; conditions: other: substrate glycerol-3-phosphate; pH 7.5

Molecule: CC(O)CC(=O)O (stereo not drawn) [beta-hydroxybutyrate]
G3PP activity (glycerol released) [1]: stimulated

G3PP activity (glycerol released) [1]: do not activate similarly
Molecule: O=C(O)/C=C/C(=O)O [fumarate]

G3PP activity (glycerol released) [1]: do not activate similarly
Molecule: O=C(O)CC(O)C(=O)O (stereo not drawn) [malate]

G3PP activity (glycerol released) [1]: do not activate similarly
Molecule: O=C(O)CC(=O)O [malonate]

Molecule: CCCCCCCCCCC[C@@H](C[C@@H]1OC(=O)[C@H]1CCCCCC)OC(=O)[C@H](CC(C)C)NC=O [orlistat]
glycerol release ([2]; elevated glucose concentration): not inhibited
FFA release (lipolysis) ([2]; high glucose concentrations): reduction
glycerol release ([3]; elevated glucose concentration): not inhibited
FFA release (lipolysis) ([3]; high glucose concentrations): reduction
glycerol release ([3]; medium concentration of glucose (10 mM)): moderate inhibition

G3PP activity (glycerol released) [1]: marked stimulation
Molecule: O=C(O)CCC(=O)O [succinate]

B1: Recombinant human PGP (Homo sapiens) (protein)
chain: MAAAEAGGDDARCVRLSAERAQALLADVDTLLFDCDGVLWRGETAVPGAPEALRALRARGKRLGFITNNSSKTRAAYAEKLRRLGFGGPAGPGASLEVFGTAYCTALYLRQRLAGAPAPKAYVLGSPALAAELEAVGVASVGVGPEPLQGEGPGDWLHAPLEPDVRAVVVGFDPHFSYMKLTKALRYLQQPGCLLVGTNMDNRLPLENGRFIAGTGCLVRAVEMAAQRQADIIGKPSRFIFDCVSQEYGINPERTVMVGDRLDTDILLGATCGLKTILTLTGVSTLGDVKNNQESDCVSKKKMVPDFYVDSIADLLPALQG
Km [4]: 1500 µM
kcat [4]: 0.1 s⁻¹
